Experimental data taken from the supplement of paper PMC12494721.
Structures can show the parent of a compound that is named as a salt.

Experiments:
Settings in all cases: incubation time: 27 h, anaerobic, 37 °C
[1] = system: Clostridium sporogenes DSM 1664; test: growth (OD595) fold change vs plate DMSO controls (fold change (ratio)); higher = more growth
[2] = system: Clostridium sporogenes DSM 1664; test: fold change of Tryptamine concentration vs plate DMSO controls (fold change (ratio)); higher = more amine produced
[3] = system: Ruminococcus gnavus DSM 108212; test: growth (OD595) fold change vs plate DMSO controls (fold change (ratio)); higher = more growth
[4] = system: Ruminococcus gnavus DSM 108212; test: fold change of Tryptamine concentration vs plate DMSO controls (fold change (ratio)); higher = more amine produced
[5] = system: Ruminococcus gnavus DSM 108212; test: fold change of 2-Phenylethylamine concentration vs plate DMSO controls (fold change (ratio)); higher = more amine produced
[6] = system: Escherichia coli IAI1; test: growth (OD595) fold change vs plate DMSO controls (fold change (ratio)); higher = more growth
[7] = system: Escherichia coli IAI1; test: fold change of Putrescine concentration vs plate DMSO controls (fold change (ratio)); higher = more amine produced
[8] = system: Escherichia coli IAI1; test: fold change of Cadaverine concentration vs plate DMSO controls (fold change (ratio)); higher = more amine produced

Oc1c(Cl)cc(Cl)cc1Sc1cc(Cl)cc(Cl)c1O [Bithionol]
Settings | fold change of Tryptamine concentration, [2] | growth, [1]
0.6125 µM | 1.09 | 1.23
1.25 µM | 1.06 | 1.2
2.5 µM | 1.07 | 0.906
5 µM | 0.891 | 0.716
10 µM | 0.0764 | 0.142
20 µM | 0.0165 | -0.0314

COC(=O)N/N=C/c1c[n+]([O-])c2ccccc2[n+]1[O-] [Carbadox]
Settings | fold change of Tryptamine concentration, [2] | growth, [1]
0.6125 µM | 0.852 | 1.09
1.25 µM | 0.79 | 0.89
2.5 µM | 0.724 | 0.999
5 µM | 0.739 | 1.04
10 µM | 0.774 | 0.742
20 µM | 0.343 | 0.333

Cn1nnnc1SCC1=C(C(=O)O)N2C(=O)[C@@H](NC(=O)[C@H](O)c3ccccc3)[C@H]2SC1 [Cefamandole sodium salt]
Settings | fold change of 2-Phenylethylamine concentration, [5] | fold change of Tryptamine concentration, [4] | growth, [3]
0.6125 µM | 0.85 | 0.992 | 1.26
1.25 µM | 0.767 | 0.847 | 1.29
2.5 µM | 0.996 | 1.2 | 1.53
5 µM | 0.492 | 0.675 | 0.889
10 µM | 0.244 | 0.357 | 0.479
20 µM | 0.178 | 0.263 | 0.481

CO[C@@]1(NC(=O)C2SC(=C(C(N)=O)C(=O)O)S2)C(=O)N2C(C(=O)O)=C(CSc3nnnn3C)CS[C@@H]21 (stereo partly specified) [Cefotetan]
Settings | fold change of Cadaverine concentration, [8] | fold change of Putrescine concentration, [7] | growth, [6]
0.6125 µM | 1.08 | 0.781 | 0.849
1.25 µM | 1.22 | 1.01 | 0.812
2.5 µM | 1.18 | 0.823 | 0.978
5 µM | 2.07 | 2.04 | 0.728
10 µM | 2.24 | 2.6 | 0.123
20 µM | 2.29 | 1.48 | 0.0366

CN(C)CCn1nnnc1SCC1=C(C(=O)O)N2C(=O)[C@@H](NC(=O)Cc3csc(N)n3)[C@H]2SC1 [Cefotiam hydrochloride]
Settings | fold change of Cadaverine concentration, [8] | fold change of Putrescine concentration, [7] | fold change of Tryptamine concentration, [2] | growth, [1] | growth, [6]
0.6125 µM | 1.29 | 0.767 | 1.02 | 0.8 | 0.969
1.25 µM | 1.27 | 0.89 | 0.833 | 0.293 | 1.03
2.5 µM | 1.71 | 2.91 | 0.0314 | 0.273 | 0.906
5 µM | 1.34 | 0.839 | 0.0234 | -0.0402 | -0.0152
10 µM | 0.568 | 0.15 | 0.025 | -0.0341 | -0.055
20 µM | 0.594 | 0.148 | 0.0225 | -0.0328 | -0.0576

Cc1cc(O)c(C(=O)N[C@@H](C(=O)N[C@@H]2C(=O)N3C(C(=O)O)=C(CSc4nnnn4C)CS[C@H]23)c2ccc(O)cc2)cn1 [Cefpiramide]
Settings | fold change of 2-Phenylethylamine concentration, [5] | fold change of Cadaverine concentration, [8] | fold change of Putrescine concentration, [7] | fold change of Tryptamine concentration, [4] | growth, [3] | growth, [6]
0.6125 µM | 0.656 | 1.44 | 0.827 | 0.773 | 1.28 | 0.836
1.25 µM | 0.288 | 1.57 | 1.34 | 0.388 | 0.921 | 0.802
2.5 µM | 0.158 | 1.97 | 3.19 | 0.226 | 0.902 | 0.44
5 µM | 0.132 | 2.19 | 2.27 | 0.183 | 0.827 | 0.259
10 µM | 0.107 | 2.26 | 1.28 | 0.154 | 0.698 | 0.00195
20 µM | 0.131 | 2.23 | 0.966 | 0.147 | 0.575 | -0.0159
